Reference: US20110038885A1, “CHEMOKINE ANALOGS” (priority 2007, published 2011)
Bridge positions count the residues as written; N and C are the ends. Square brackets hold non-standard residues; d marks the D form. Peptide text beside a SMILES is read from it. * marks the point of attachment. d(pGlu) = O=C1CC[C@H](C(=O)O)N1; Lauroyl = CCCCCCCCCCCC(=O)*; X1 = O=C(CN1CCN(CCO)CC1)*; Octanoyl = CCCCCCCC(=O)*; Butyryl = CCCC(=O)*

Tests used:
MCP-1 = assay: In vitro chemotaxis (trans-well migration) v MCP-1; assay type: cell-based, human
Outline: (§1)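 Human THP-1 monocytes (10^4-10^6) with agent at varying concentrations in upper trans-well chamber; IL-8 or MCP-1 in lower chamber at a migration-inducing concentration, 37° C for e.g. 4 hours. Migrated cells quantified by MTT (595 nm) against a THP-1 standard curve; cytotoxicity and non-chemokine chemoattractant controls run.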

Half-life in rat in vivo = conditions: for half-life: read-out: T ½ rat in vivo
IL-8 = assay: In vitro chemotaxis, inhibition v IL-8; assay type: cell-based, human; set-up: concentration or dose not given beside the values
Outline: as §1

SMILES: CC[C@H](C)[C@@H]1NC(=O)[C@H](Cc2c[nH]c3ccccc23)NC(=O)[C@H](CCCCN)NC(=O)[C@@H](NC(=O)[C@H]2CCC(=O)N2)CSSC[C@@H](C(N)=O)NC(=O)[C@H](CCC(N)=O)NC1=O [Example 53, DpGlu-c(Cys-Lys-Trp-Ile-Gln-Cys)-NH2] ([d(pGlu)]CKWIQC-NH2; disulfide 2-7)
- EC50 (MCP-1): 6 nM
- T ½ rat in vivo (Half-life in rat in vivo): 23.1 min
- half-life (Half-life in rat in vivo): 19.4 min

SMILES: CCCCCCCC(=O)NCCCC[C@H](NC(=O)[C@H](CC(=O)O)NC(=O)[C@H]1CSSC[C@@H](N)C(=O)N[C@H](CCC(N)=O)C(=O)N[C@H]([C@H](C)CC)C(=O)N[C@H](Cc2c[nH]c3ccccc23)C(=O)N[C@H](CCCCN)C(=O)N[C@H](CCC(N)=O)C(=O)N[C@H](CCCCN)C(=O)N2CCC[C@@H]2C(=O)N[C@H](CC(=O)O)C(=O)N[C@H](CC(C)C)C(=O)N1)C(=O)O [Example 148, c(D-Cys-D-Gln-D-Ile-D-Trp-D-Lys-D-Gln-D-Lys-D-Pro-D-Asp-D-Leu-D-Cys)-Asp-Lys(Nε-octanoyl)-OH] (H-[dC][dQ][dI][dW][dK][dQ][dK][dP][dD][dL][dC]DK(Octanoyl)-OH; disulfide 1-11)
- EC50 (MCP-1): 6 nM
- v IL-8 inhibition (%) (IL-8): 100.9%
- half-life (Half-life in rat in vivo): 39 min

SMILES: CC[C@H](C)[C@@H]1NC(=O)[C@H](Cc2c[nH]c3ccccc23)NC(=O)[C@H](CCCCN)NC(=O)[C@H](CCC(N)=O)NC(=O)[C@H](CCCCN)NC(=O)[C@@H]2CCCN2C(=O)[C@H](CC(=O)O)NC(=O)[C@@H](NC(=O)[C@H](CC(C)C)NC(C)=O)CSSC[C@@H](C(N)=O)NC(=O)[C@H](CCC(N)=O)NC1=O [Example 19, Ac-Leu-c(Cys-Asp-Pro-Lys-Gln-Lys-Trp-Ile-Gln-Cys)-NH2] (Ac-LCDPKQKWIQC-NH2; disulfide 2-11)
- EC50 (MCP-1): 7 nM
- v IL-8 inhibition (%) (IL-8): 100.5%
- half-life (Half-life in rat in vivo): < 5 min

SMILES: CCCCCCCCCCCC(=O)NCCCC[C@H](NC(C)=O)C(=O)N[C@H]1CSSC[C@@H](C(N)=O)NC(=O)[C@H](CCC(N)=O)NC(=O)[C@H]([C@@H](C)CC)NC(=O)[C@H](Cc2c[nH]c3ccccc23)NC(=O)[C@H](CCCCN)NC(=O)[C@H](CCC(N)=O)NC(=O)[C@H](CCCCN)NC(=O)[C@@H]2CCCN2C(=O)[C@H](CC(=O)O)NC(=O)[C@H](CC(C)C)NC1=O [Example 162, Ac-Lys(N/-dodecanoyl)-c(Cys-Leu-Asp-Pro-Lys-Gln-Lys-Trp-Ile-Gln-Cys)-NH2] (Ac-K(Lauroyl)CLDPKQKWIQC-NH2; disulfide 2-12)
- EC50 (MCP-1): 20 nM
- v IL-8 inhibition (%) (IL-8): 101.1%
- half-life (Half-life in rat in vivo): 17 min

SMILES: CC[C@H](C)[C@@H]1NC(=O)[C@H](Cc2c[nH]c3ccccc23)NC(=O)[C@H](CCCCN)NC(=O)[C@H](CCC(N)=O)NC(=O)[C@H](CCCCN)NC(=O)[C@H]2CCCN2C(=O)[C@H](CC(=O)O)NC(=O)[C@H](CC(C)C)NC(=O)[C@@H](NC(C)=O)CSSC[C@@H](C(N)=O)NC(=O)[C@H](CCC(N)=O)NC1=O [Example 30, Ac-c(Cys-Leu-Asp-D-Pro-Lys-Gln-Lys-Trp-Ile-Gln-Cys)-NH2] (Ac-CLD[dP]KQKWIQC-NH2; disulfide 1-11)
- EC50 (MCP-1): 8 nM
- v IL-8 inhibition (%) (IL-8): 99.2%
- half-life (Half-life in rat in vivo): < 10 min

SMILES: CC[C@H](C)[C@@H]1NC(=O)[C@H](Cc2c[nH]c3ccccc23)NC(=O)[C@H](CCCCN)NC(=O)[C@H](CCC(N)=O)NC(=O)[C@H](CCCCN)NC(=O)[C@@H]2CCCN2C(=O)[C@@H](NC(=O)[C@H](CC(=O)O)NC(=O)[C@H](CC(C)C)NC(C)=O)CSSC[C@@H](C(N)=O)NC(=O)[C@H](CCC(N)=O)NC1=O [Example 20, Ac-Leu-Asp-c(Cys-Pro-Lys-Gln-Lys-Trp-Ile-Gln-Cys)-NH2] (Ac-LDCPKQKWIQC-NH2; disulfide 3-11)
- EC50 (MCP-1): 8 nM
- v IL-8 inhibition (%) (IL-8): 93.9%
- T ½ rat in vivo (Half-life in rat in vivo): 4.7 min
- half-life (Half-life in rat in vivo): 2.7 min

SMILES: CC[C@H](C)[C@@H]1NC(=O)[C@H](Cc2c[nH]c3ccccc23)NC(=O)[C@H](CCCCN)NC(=O)[C@H](CCC(N)=O)NC(=O)[C@H](CCCCN)NC(=O)[C@@H]2CCCN2C(=O)[C@H](CC(=O)O)NC(=O)[C@H](CC(C)C)NC(=O)[C@@H](NC(C)=O)CSSC[C@@H](C(N)=O)NC(=O)[C@H](CCC(N)=O)NC1=O [Example 9, Ac-c(Cys-Leu-Asp-Pro-Lys-Gln-Lys-Trp-Ile-Gln-Cys)-NH2] (Ac-CLDPKQKWIQC-NH2; disulfide 1-11)
- EC50 (MCP-1): 2 nM
- v IL-8 inhibition (%) (IL-8): 102.3%
- half-life (Half-life in rat in vivo): 5.4 min

SMILES: CC[C@H](C)[C@@H]1NC(=O)[C@H](Cc2c[nH]c3ccccc23)NC(=O)[C@H](CCCCN)NC(=O)[C@@H](CCC(N)=O)NC(=O)[C@H](CCCCN)NC(=O)[C@@H]2CCCN2C(=O)[C@H](CC(=O)O)NC(=O)[C@H](CC(C)C)NC(=O)[C@@H](NC(C)=O)CSSC[C@@H](C(N)=O)NC(=O)[C@H](CCC(N)=O)NC1=O [Example 28, Ac-c(Cys-Leu-Asp-Pro-Lys-D-Gln-Lys-Trp-Ile-Gln-Cys)-NH2] (Ac-CLDPK[dQ]KWIQC-NH2; disulfide 1-11)
- EC50 (MCP-1): 4 nM
- v IL-8 inhibition (%) (IL-8): 96.9%
- half-life (Half-life in rat in vivo): 14 min

SMILES: CC[C@@H](C)[C@H]1NC(=O)[C@@H](CCC(N)=O)NC(=O)[C@H](NC(=O)CN2CCN(CCO)CC2)CSSC[C@H](C(N)=O)NC(=O)[C@@H](CC(C)C)NC(=O)[C@@H](CC(=O)O)NC(=O)[C@H]2CCCN2C(=O)[C@@H](CCCCN)NC(=O)[C@@H](CCC(N)=O)NC(=O)[C@@H](CCCCN)NC(=O)[C@@H](Cc2c[nH]c3ccccc23)NC1=O [Example 152, HEPA-c(D-Cys-D-Gln-D-Ile-D-Trp-D-Lys-D-Gln-D-Lys-D-Pro-D-Asp-D-Leu-D-Cys)-NH2] (X1-[dC][dQ][dI][dW][dK][dQ][dK][dP][dD][dL][dC]-NH2; disulfide 1-11)
- EC50 (MCP-1): 20 nM
- v IL-8 inhibition (%) (IL-8): 103.5%
- half-life (Half-life in rat in vivo): 38 min

SMILES: CCCC(=O)N[C@@H]1CSSC[C@H](C(N)=O)NC(=O)[C@@H](CCCCN)NC(=O)[C@@H](Cc2c[nH]c3ccccc23)NC(=O)[C@@H]([C@H](C)CC)NC(=O)[C@@H](CCC(N)=O)NC1=O [Example 191, nButyryl-c(D-Cys-D-Gln-D-Ile-D-Trp-D-Lys-D-Cys)-NH2] (Butyryl-[dC][dQ][dI][dW][dK][dC]-NH2; disulfide 1-6)
- EC50 (MCP-1): 5 nM
- half-life (Half-life in rat in vivo): 30 min

SMILES: CC[C@H](C)[C@@H]1NC(=O)[C@H](Cc2c[nH]c3ccccc23)NC(=O)[C@H](CCCCN)NC(=O)[C@@H](NC(=O)[C@H](CCC(N)=O)NC(C)=O)CSSC[C@@H](C(N)=O)NC(=O)[C@H](CCC(N)=O)NC1=O [Example 54, Ac-Gln-c(Cys-Lys-Trp-Ile-Gln-Cys)-NH2] (Ac-QCKWIQC-NH2; disulfide 2-7)
- EC50 (MCP-1): 10 nM
- T ½ rat in vivo (Half-life in rat in vivo): 20.9 min
- half-life (Half-life in rat in vivo): 30.3 min

SMILES: CC[C@H](C)[C@@H]1NC(=O)[C@H](Cc2c[nH]c3ccccc23)NC(=O)[C@H](CCCCN)NC(=O)[C@H](CCC(N)=O)NC(=O)[C@H](CCCCN)NC(=O)[C@@H]2CCCN2C(=O)[C@@H](CC(=O)O)NC(=O)[C@H](CC(C)C)NC(=O)[C@@H](NC(C)=O)CSSC[C@@H](C(N)=O)NC(=O)[C@H](CCC(N)=O)NC1=O [Example 31, Ac-c(Cys-Leu-D-Asp-Pro-Lys-Gln-Lys-Trp-Ile-Gln-Cys)-NH2] (Ac-CL[dD]PKQKWIQC-NH2; disulfide 1-11)
- EC50 (MCP-1): 50 nM
- v IL-8 inhibition (%) (IL-8): 95.8%

SMILES: CC[C@H](C)[C@@H]1NC(=O)[C@H](Cc2c[nH]c3ccccc23)NC(=O)[C@H](CCCCN)NC(=O)[C@H](CCC(N)=O)NC(=O)[C@H](CCCCN)NC(=O)[C@@H]2CCCN2C(=O)[C@H](CC(=O)O)NC(=O)[C@H](CC(C)C)NC(=O)[C@H](N)CSSC[C@@H](C(N)=O)NC(=O)[C@H](CCC(N)=O)NC1=O [Example 39, c(D-Cys-Leu-Asp-Pro-Lys-Gln-Lys-Trp-Ile-Gln-Cys)-NH2] (H-[dC]LDPKQKWIQC-NH2; disulfide 1-11)
- EC50 (MCP-1): > 1000 nM
- v IL-8 inhibition (%) (IL-8): 3.8%

SMILES: CCCCCCCC(=O)NCCCC[C@H](NC(=O)[C@@H](CC(=O)O)NC(=O)[C@H]1CSSC[C@@H](N)C(=O)N[C@H](CCC(N)=O)C(=O)N[C@H]([C@H](C)CC)C(=O)N[C@H](Cc2c[nH]c3ccccc23)C(=O)N[C@H](CCCCN)C(=O)N[C@H](CCC(N)=O)C(=O)N[C@H](CCCCN)C(=O)N2CCC[C@@H]2C(=O)N[C@H](CC(=O)O)C(=O)N[C@H](CC(C)C)C(=O)N1)C(=O)O [Example 147, c(D-Cys-D-Gln-D-Ile-D-Trp-D-Lys-D-Gln-D-Lys-D-Pro-D-Asp-D-Leu-D-Cys)-D-Asp-Lys(Nε-octanoyl)-OH] (H-[dC][dQ][dI][dW][dK][dQ][dK][dP][dD][dL][dC][dD]K(Octanoyl)-OH; disulfide 1-11)
- EC50 (MCP-1): 500 nM
- v IL-8 inhibition (%) (IL-8): 29.0%

SMILES: CC[C@H](C)[C@@H]1NC(=O)[C@H](Cc2c[nH]c3ccccc23)NC(=O)[C@H](CCCCN)NC(=O)[C@@H](NC(C)=O)CSSC[C@@H](C(N)=O)NC(=O)[C@H](CCC(N)=O)NC1=O [Example 55, Ac-c(Cys-Lys-Trp-Ile-Gln-Cys)-NH2] (Ac-CKWIQC-NH2; disulfide 1-6)
- EC50 (MCP-1): 6 nM
- T ½ rat in vivo (Half-life in rat in vivo): 16.5 min
- half-life (Half-life in rat in vivo): 18 min

SMILES: CC[C@H](C)[C@@H]1NC(=O)[C@H](Cc2c[nH]c3ccccc23)NC(=O)[C@H](CCCCN)NC(=O)[C@H](CCC(N)=O)NC(=O)[C@H](CCCCN)NC(=O)[C@@H]2CCCN2C(=O)[C@H](CC(=O)O)NC(=O)[C@H](CC(C)C)NC(=O)[C@@H](NC(C)=O)CSSC[C@@H](C(N)=O)NC(=O)[C@@H](CCC(N)=O)NC1=O [Example 24, Ac-c(Cys-Leu-Asp-Pro-Lys-Gln-Lys-Trp-Ile-D-Gln-Cys)-NH2] (Ac-CLDPKQKWI[dQ]C-NH2; disulfide 1-11)
- EC50 (MCP-1): 200 nM
- v IL-8 inhibition (%) (IL-8): 33.8%
